According to US11760754B2, “Heterocyclic mitochondrial activity inhibitors and uses thereof” (UNIVERSITÉ DE MONTRÉAL, priority 2017, dated 2023):

How the values were obtained:
[1] = test system: OCI-AML3 cells; assay: OCI-AML3 cell growth inhibition, dose-response viability assay (CellTiterGlo); format: cell-based; details: Homo sapiens, OCI-AML-3, 144 h, read-out: AML-3 EC50
Description: Cell dose-response viability assays. […] In the initial screen, compounds were added to seeded cells in serial dilutions (10 dilutions, 1:3, starting from […] 20 μM), in duplicates.
(§1) The potency of the compounds of Example 6 at inhibiting OCI-AML3 cell growth was tested using a procedure similar to that described for Mutritinib in Example 1. […] Murine MLL-AF9 leukemia cells (female cells) were generated by infection with VSV-G-pseudotyped MSCV MLL-AF9 IRES Puro (subcloned from a construct by Frédéric Barabé, Laval U, Quebec, QC, Canada).
(§2) Compounds were added to seeded cells in serial dilutions from 10 μM to 0.5 nM, in duplicates or quadruplicates.

[2] = test system: MLL-AF9 cells; assay: MLL-AF9 leukemia cell growth inhibition, dose-response viability assay (CellTiterGlo); format: cell-based, murine; details: Mus musculus, MLL-AF9, 120 h, read-out: MLL-AF9 EC50
Description: as §1, §2

Row | SMILES | EC50 [1] [nM] | EC50 [2] [nM]
1 | FC(F)(F)c1ccc(/C=C/c2ccc(COc3ccc(CCCCn4ccnn4)cc3)cc2)cc1 [Compound 57, (E)-1-(4-(4-((4-(4-(trifluoromethyl)styryl)benzyl)oxy)phenyl)butyl)-1H-1,2,3-triazole] | 1000 to 10000 | 500 to 1000
2 | COC(=O)c1ccc(/C=C/c2nc(COc3ccc(CCCCn4ccnn4)cc3)co2)cc1 [Compound 58, (E)-methyl 4-(2-(4-((4-(4-(1H-1,2,3-triazol-1-yl)butyl)phenoxy)methyl)oxazol-2-yl)vinyl)benzoate] | 500 to 1000 | 1000 to 10000
3 | COc1ccc(/C=C/c2nc(COc3ccc(CCCCn4ccnn4)cc3)co2)c(F)c1 [Compound 61, (E)-4-((4-(4-(1H-1,2,3-triazol-1-yl)butyl)phenoxy)methyl)-2-(2-fluoro-4-methoxystyryl)oxazole] | 100 to 500 | 100 to 500
4 | NC(=O)c1ccc(/C=C/c2nc(COc3ccc(CCCCn4ccnn4)cc3)co2)cc1 [Compound 63, (E)-4-(2-(4-((4-(4-(1H-1,2,3-triazol-1-yl)butyl)phenoxy)methyl)oxazol-2-yl)vinyl)benzamide] | 500 to 1000 | 1000 to 10000
5 | C#Cc1ccc(/C=C/c2nc(COc3ccc(CCCCn4ccnn4)cc3)co2)cc1 [Compound 64, (E)-4-((4-(4-(1H-1,2,3-triazol-1-yl)butyl)phenoxy)methyl)-2-(4-ethynylstyryl)oxazole] | 1000 to 10000 | 500 to 1000
6 | CN(C)C(=O)OCCc1cn(CCCCc2ccc(OCc3coc(/C=C/c4ccc(C(F)(F)F)cc4)n3)cc2)nn1 [Compound 68, (E)-2-(1-(4-(4-((2-(4-(trifluoromethyl)styryl)oxazol-4-yl)methoxy)phenyl)butyl)-1H-1,2,3-triazol-4-yl)ethyl dimethylcarbamate] | 500 to 1000 | 100 to 500
7 | COCCNC(=O)OCCc1cn(CCCCc2ccc(OCc3coc(/C=C/c4ccc(C(F)(F)F)cc4)n3)cc2)nn1 [Compound 69, (E)-2-(1-(4-(4-((2-(4-(trifluoromethyl)styryl)oxazol-4-yl)methoxy)phenyl)butyl)-1H-1,2,3-triazol-4-yl)ethyl (2-methoxyethyl)carbamate] | 500 to 1000 | 100 to 500
8 | Fc1ccc2[nH]c(-c3nc(COc4ccc(CCCCn5ccnn5)cc4)co3)cc2c1 [Compound 73] | 100 to 500 | < 50
9 | C/C(=C\c1nc(COc2ccc(CCCCn3ccnn3)cc2)co1)c1ccc(C(F)(F)F)cc1 [Compound 74, (E)-4-((4-(4-(1H-1,2,3-triazol-1-yl)butyl)phenoxy)methyl)-2-(2-(4-(trifluoromethyl)phenyl)prop-1-en-1-yl)oxazole] | 1000 to 10000 | 100 to 500
10 | FC(F)(F)c1ccc(-c2ccc(COc3ccc(CCCCn4ccnn4)cc3)cn2)cc1 [Compound 75] | 1000 to 10000 | 1000 to 10000
11 | FC(F)(F)c1ccc(C2CC2c2nc(COc3ccc(CCCCn4ccnn4)cc3)co2)cc1 (centres unmarked) [Compound 76, 4-((4-(4-(1H-1,2,3-triazol-1-yl)butyl)phenoxy)methyl)-2-(2-(4-(trifluoromethyl)phenyl)cyclopropyl)oxazole] | 1000 to 10000 | 1000 to 10000
12 | COC(=O)c1coc(COc2ccc(CCCCn3ccnn3)cc2)n1 [Compound 77, Methyl 2-((4-(4-(1H-1,2,3-triazol-1-yl)butyl)phenoxy)methyl)oxazole-4-carboxylate] | 1000 to 10000 | > 10000
13 | C(=C\c1nc(COc2ccc(CCCCn3ccnn3)cc2)co1)/c1ccncc1 [Compound 80, (E)-4-((4-(4-(1H-1,2,3-triazol-1-yl)butyl)phenoxy)methyl)-2-(2-(pyridin-4-yl)vinyl) oxazole] | 500 to 1000 | 100 to 500

More lines, now with the values ahead:

Row | EC50 [1] [nM] | EC50 [2] [nM] | SMILES
14 | 100 to 500 | 100 to 500 | CS(=O)(=O)NCCc1nccn1CCCCc1ccc(OCc2coc(/C=C/c3ccc(C(F)(F)F)cc3)n2)cc1 [Compound 54, (E)-N-(2-(1-(4-(4-((2-(4-(trifluoromethyl)styryl)oxazol-4-yl)methoxy)phenyl)butyl)-1H-imidazol-2-yl)ethyl)methanesulfonamide]
15 | 500 to 1000 | 100 to 500 | O=S(=O)(NCCc1nccn1CCCCc1ccc(OCc2coc(/C=C/c3ccc(C(F)(F)F)cc3)n2)cc1)C(F)(F)F [Compound 55, (E)-1,1,1-trifluoro-N-(2-(1-(4-(4-((2-(4-(trifluoromethyl)styryl)oxazol-4-yl)methoxy)phenyl)butyl)-1H-imidazol-2-yl)ethyl)methanesulfonamide]
16 | 1000 to 10000 | 1000 to 10000 | FC(F)(F)c1ccc(/C=C/c2cccc(COc3ccc(CCCCn4ccnn4)cc3)c2)cc1 [Compound 56, (E)-1-(4-(4-((3-(4-(trifluoromethyl)styryl)benzyl)oxy)phenyl)butyl)-1H-1,2,3-triazole]
17 | 500 to 1000 | 100 to 500 | C#CCNC(=O)c1ccc(/C=C/c2nc(COc3ccc(CCCCn4ccnn4)cc3)co2)cc1 [Compound 59, (E)-4-(2-(4-((4-(4-(1H-1,2,3-triazol-1-yl)butyl)phenoxy)methyl)oxazol-2-yl)vinyl)-N-(prop-2-yn-1-yl)benzamide]
18 | 1000 to 10000 | 1000 to 10000 | OCc1ccc(/C=C/c2nc(COc3ccc(CCCCn4ccnn4)cc3)co2)cc1 [Compound 60, (E)-(4-(2-(4-((4-(4-(1H-1,2,3-triazol-1-yl)butyl)phenoxy)methyl)oxazol-2-yl)vinyl)phenyl)methanol]
19 | 100 to 500 | 100 to 500 | Oc1ccc(/C=C/c2nc(COc3ccc(CCCCn4ccnn4)cc3)co2)cc1 [Compound 62, (E)-4-(2-(4-((4-(4-(1H-1,2,3-triazol-1-yl)butyl)phenoxy)methyl)oxazol-2-yl)vinyl)phenol]
20 | 50 to 100 | < 50 | O=[N+]([O-])c1ccc(/C=C/c2nc(COc3ccc(CCCCn4ccnn4)cc3)co2)c(F)c1 [Compound 65, (E)-4-((4-(4-(1H-1,2,3-triazol-1-yl)butyl)phenoxy)methyl)-2-(2-fluoro-4-nitrostyryl)oxazole]
21 | 1000 to 10000 | 1000 to 10000 | Nc1ccc(/C=C/c2nc(COc3ccc(CCCCn4ccnn4)cc3)co2)c(F)c1 [Compound 66, (E)-4-(2-(4-((4-(4-(1H-1,2,3-triazol-1-yl)butyl)phenoxy)methyl)oxazol-2-yl)vinyl)-3-fluoroaniline]
22 | 100 to 500 | 100 to 500 | [N-]=[N+]=Nc1ccc(/C=C/c2nc(COc3ccc(CCCCn4ccnn4)cc3)co2)c(F)c1 [Compound 67, (E)-4-((4-(4-(1H-1,2,3-triazol-1-yl)butyl)phenoxy)methyl)-2-(4-azido-2-fluorostyryl)oxazole]
23 | 500 to 1000 | 100 to 500 | CC(C)NC(=O)OCCc1cn(CCCCc2ccc(OCc3coc(/C=C/c4ccc(C(F)(F)F)cc4)n3)cc2)nn1 [Compound 70, (E)-2-(1-(4-(4-((2-(4-(trifluoromethyl)styryl)oxazol-4-yl)methoxy)phenyl)butyl)-1H-1,2,3-triazol-4-yl)ethyl isopropylcarbamate]
24 | 100 to 500 | < 50 | O=S1(=O)CCN(Cc2cn(CCCCc3ccc(OCc4coc(/C=C/c5ccc(C(F)(F)F)cc5F)n4)cc3)nn2)CC1 [Compound 71, (E)-4-((1-(4-(4-((2-(2-fluoro-4-(trifluoromethyl)styryl)oxazol-4-yl)methoxy)phenyl)butyl)-1H-1,2,3-triazol-4-yl)methyl)thiomorpholine 1,1-dioxide]
25 | 1000 to 10000 | 500 to 1000 | CN(C)c1cccc2c(S(=O)(=O)NCCNC(=O)c3ccc(/C=C/c4nc(COc5ccc(CCCCn6ccnn6)cc5)co4)cc3)cccc12 [Compound 72, (E)-4-(2-(4-((4-(4-(1H-1,2,3-triazol-1-yl)butyl)phenoxy)methyl)oxazol-2-yl)vinyl)-N-(2-(5-(dimethylamino)naphthalene-1-sulfonamido)ethyl)benzamide]
26 | 1000 to 10000 | > 10000 | O=C(Nc1ccc(C(F)(F)F)cc1[N+](=O)[O-])c1coc(COc2ccc(CCCCn3ccnn3)cc2)n1 [Compound 78, 2-((4-(4-(1H-1,2,3-triazol-1-yl)butyl)phenoxy)methyl)-N-(2-nitro-4-(trifluoromethyl)phenyl)oxazole-4-carboxamide]
27 | 1000 to 10000 | 1000 to 10000 | CC(C)(C)OC(=O)NCCCCc1ccc(OCc2coc(/C=C/c3ccc(C(F)(F)F)cc3)n2)cc1 [Compound 79, (E)-tert-butyl (4-(4-((2-(4-(trifluoromethyl)styryl)oxazol-4-yl)methoxy)phenyl)butyl) carbamate]
28 | 50 to 100 | 50 to 100 | Fc1cnccc1/C=C/c1nc(COc2ccc(CCCCn3ccnn3)cc2)co1 [Compound 81, (E)-4-((4-(4-(1H-1,2,3-triazol-1-yl)butyl)phenoxy)methyl)-2-(2-(3-fluoropyridin-4-yl)vinyl)oxazole]
29 | 100 to 500 | 100 to 500 | C(=C\c1nc(COc2ccc(CCCCn3ccnn3)cc2)co1)/c1cccnc1 [Compound 82, (E)-4-((4-(4-(1H-1,2,3-triazol-1-yl)butyl)phenoxy)methyl)-2-(2-(pyridin-3-yl)vinyl)oxazole]
30 | 500 to 1000 | 100 to 500 | Fc1ncccc1/C=C/c1nc(COc2ccc(CCCCn3ccnn3)cc2)co1 [Compound 83, (E)-4-((4-(4-(1H-1,2,3-triazol-1-yl)butyl)phenoxy)methyl)-2-(2-(2-fluoropyridin-3-yl)vinyl)oxazole]
31 | 1000 to 10000 | 1000 to 10000 | C(=C\c1nc(COc2ccc(CCCCn3ccnn3)cc2)co1)/c1ccccn1 [Compound 84, (E)-4-((4-(4-(1H-1,2,3-triazol-1-yl)butyl)phenoxy)methyl)-2-(2-(pyridin-2-yl)vinyl)oxazole]
